According to ChEMBL document CHEMBL5370556, “Optimization, and biological evaluation of 3-O-β-chacotriosyl betulinic acid amide derivatives as novel small-molecule Omicron” (Eur J Med Chem, 2023):
Active and inactive are the calls of the source. The calls are words filed in the database; no cut-off is given here.

Assays:
Assay type in all cases: functional, organism-based
SARS-CoV-2 [1] = assay: Antiviral activity against luciferase-expressing pseudovirus encoding SARS-CoV-2 Omicron expressing S protein L303A/E309A/R765A/K964A mutant infected in human 293T/ACE2 cells assessed as reduction of viral growth at 1.25 to 10 uM measured after 48 hrs by luciferase assay; conditions: Severe acute respiratory syndrome coronavirus 2, dose 1.25-10 µM
SARS-CoV-2 [2] = assay: Antiviral activity against luciferase-expressing pseudovirus encoding SARS-CoV-2 Omicron expressing S protein R765A/K964A mutant infected in human 293T/ACE2 cells assessed as reduction of viral growth measured after 48 hrs by luciferase assay; conditions: Severe acute respiratory syndrome coronavirus 2
SARS-CoV-2 [3] = assay: Antiviral activity against luciferase-expressing pseudovirus encoding SARS-CoV-2 Omicron expressing S protein L303A/E309A mutant infected in human 293T/ACE2 cells assessed as reduction of viral growth measured after 48 hrs by luciferase assay; conditions: Severe acute respiratory syndrome coronavirus 2

For `C=C(C)[C@@H]1CC[C@]2(C(=O)Nc3ccc4ccccc4c3)CC[C@]3(C)[C@H](CC[C@@H]4[C@@]5(C)CC[C@H](O[C@@H]6O[C@H](CO)[C@@H](O[C@@H]7O[C@@H](C)[C@H](O)[C@@H](O)[C@H]7O)[C@H](O)[C@H]6O[C@@H]6O[C@@H](C)[C@H](O)[C@@H](O)[C@H]6O)C(C)(C)[C@@H]5CC[C@]43C)[C@@H]12`, the Activity (SARS-CoV-2 [1]) was “inactive”, the Activity (SARS-CoV-2 [2]) was “Active” and the Activity (SARS-CoV-2 [3]) was “Active”.
